Data taken from US20080280943A1, “METHODS AND PACKAGES TO ENHANCE SAFETY WHEN USING IMIQUIMOD TO TREAT CHILDREN DIAGNOSED WITH SKIN DISORDERS” (priority 2007, published 2008).

Assays:
[1] = system: molluscum contagiosum (MC) lesions; assay: Study 1: randomized, vehicle-controlled, double-blind trial in pediatric subjects with molluscum contagiosum, efficacy; type: in vivo, human (pediatric subjects)
Procedure: Aldara® Cream, commercially available via prescription and manufactured by 3M Health Care Limited, Loughborough LE11 1EP England, and distributed by Graceway Pharmaceuticals, LLC, Bristol, Tenn. 37620, is evaluated in two randomized, vehicle-controlled, double-blind trials involving 702 pediatric subjects with molluscum contagiosum (MC) (470 are exposed to Aldara; median age 5 years, range 2-12 years). Subjects apply Aldara® Cream or vehicle 3 times weekly for up to 16 weeks. Complete clearance (no MC lesions) is assessed at Week 18. […] Similar to the studies conducted in adults, the most frequently reported adverse reaction from 2 studies in children with molluscum contagiosum is application site reaction. Adverse events which occur more frequently in Aldara®-treated subjects as compared with vehicle-treated subjects generally resemble those seen in studies in indications approved for adults and also included otitis media (5% Aldara vs. 3% vehicle) and conjunctivitis (3% Aldara® vs. 2% vehicle). Erythema is the most frequently reported local skin reaction. The severe local skin reactions that are reported by Aidara®-treated subjects in the pediatric studies include erythema (28%), edema (8%), scabbing/crusting (5%), flaking/scaling (5%), erosion (2%) and weeping/exudate (2%).
(§1) More particularly, the objective is to evaluate the efficacy of imiquimod cream, 5% (imiquimod) for the treatment of molluscum contagiosum (MC) lesions in pediatric subjects when the cream was applied 3 times per week (3×/wk) for up to 16 weeks. The efficacy of imiquimod is evaluated by assessing MC lesion clearance. The primary efficacy parameter is complete clearance of all MC lesions (complete clinical resolution) from treatment initiation to the week 18/efficacy visit. Secondary efficacy parameters include partial clearance, defined as ≧50% reduction from the baseline lesion count, and the change in total lesion count. Time to complete clearance is also compared between treatment groups. The secondary objective is to evaluate the safety of imiquimod. Safety assessments are conducted throughout the study. Safety was assessed through incidence and severity of adverse events (AEs); local skin reactions (LSRs) of erythema, edema, erosion/ulceration, weeping/exudates, scabbing/crusting, and flaking/scaling/dryness; skin quality assessments; vital signs measurements; general physical examinations; hematology laboratory tests; and concomitant medication use.
This is a randomized, vehicle-controlled, double-blind, parallel group, study that is conducted in children aged 2 to 12 years of age who had ≧2 clinically verified MC lesions. Enrollment is monitored to ensure at least 50% of subjects had at least 5 MC lesions, at least 50% of subjects are under 6 years of age, and a sufficient number of subjects enrolled with periocular lesions. Subjects are randomized 2:1 (imiquimod: vehicle) and apply study cream 3×/wk for up to 16 weeks (or until complete resolution of all MC lesions) to all target MC lesions. Subjects who weigh <25 kg apply up to 2 sachets of study cream, while subjects who weigh ≧25 kg apply up to 3 sachets. At the screening/treatment initiation visit, MC lesions and application area locations are recorded on a body diagram. […] At each study visit, MC lesions are counted and recorded, and safety procedures are performed. […]

[2] = Systemic absorption of imiquimod across affected skin of 22 subjects with extensive MC (serum levels, hematology); type: in vivo, human (subjects aged 2 to 12 years)
Procedure: Systemic absorption of imiquimod across the affected skin of 22 subjects aged 2 to 12 years with extensive MC involving at least 10% of the total body surface area is observed after single and multiple doses at a dosing frequency of 3 applications per week for 4 weeks. The investigator determines the dose applied, i.e., either 1, 2 or 3 packets per dose, based on the size of the treatment area and the subject's weight. […] Children aged 2-5 years receive doses of 12.5 mg (one packet) or 25 mg (two packets) of imiquimod and have median multiple-dose peak serum drug levels of approximately 0.2 or 0.5 ng/ml, respectively. Children aged 6-12 years receive doses of 12.5 mg, 25 mg, or 37.5 mg (three packets) and have median multiple dose serum drug levels of approximately 0.1, 0.15, or 0.3 ng/ml, respectively. Among the 20 subjects with evaluable laboratory assessments, the median WBC count decreases by 1.4*10^9/L and the median absolute neutrophil count decreases by 1.42*10^9/L.

[3] = Safety assessment in the vehicle-controlled MC study (N=323); type: in vivo, human (children aged 2 to 12 years)
Procedure: as §1
This is a randomized, vehicle-controlled, double-blind, parallel group, study that is conducted in children aged 2 to 12 years of age who had ≧2 clinically verified MC lesions. Enrollment is monitored to ensure at least 50% of subjects had at least 5 MC lesions, at least 50% of subjects are under 6 years of age, and a sufficient number of subjects enrolled with periocular lesions. Subjects are randomized 2:1 (imiquimod: vehicle) and apply study cream 3×/wk for up to 16 weeks (or until complete resolution of all MC lesions) to all target MC lesions. […] At the screening/treatment initiation visit, MC lesions and application area locations are recorded on a body diagram. […] At each study visit, MC lesions are counted and recorded, and safety procedures are performed. […] MC lesions are treated 3×/wk for up to 16 weeks, or until determined that all MC lesions are cleared. […]

[4] = 20 subjects with evaluable laboratory assessments

For `CC(C)Cn1cnc2c(N)nc3ccccc3c21` [imiquimod, 1-isobutyl-1H-imidazo[4,5-c]-quinolin-4-amine], the “partial clearance rate (≧50% reduction from baseline lesion count) at week 18” value ([1]; ITT, 108/217, vehicle 45.3%, p=0.4416) was 49.8%, the “complete clearance rate (no MC lesions) at Week 18” value ([1]; Study 1, ITT, 52/217, cream applied 3 times weekly for up to 16 weeks, vehicle 26% (28/106)) was 24.0% and the “efficacy versus vehicle cream with respect to complete and partial clearance of MC lesions” value ([1]; dosed 3×/wk for up to 16 weeks) was “not statistically significantly more effective than vehicle cream”. The “distribution in time to complete clearance versus vehicle” value ([1]; generalized Wilcoxon Test, p=0.7830) was “not significantly different”, the “median percent reduction in MC lesions at week 18” value ([1]; vehicle 37.3%) was 48.1% and the “decrease in median WBC count” value [2, 4] was 1.4e+09 L⁻¹. For the same molecule, the “decrease in median absolute neutrophil count” value [2, 4] was 1.42e+09 L⁻¹, the “median multiple-dose peak serum drug level” value ([2]; children aged 2-5 years, 12.5 mg (one packet)) was “approximately 0.2 ng/ml” and the “peak serum imiquimod concentrations following both single and multiple doses” value ([2]; children, topical imiquimod (summary statement)) was less than 2 ng/mL. For the same molecule, the Cmax ([2]; human, in vivo, 25 mg, single person, 2 packets of study drug per dose, read-out: Cmax after multiple dosing) was 9.66 ng/mL, the “median WBC count decreased by” value ([2]; summary statement) was “about 1.4 *109/L” and the “median absolute neutrophil count decreased by” value ([2]; summary statement) was “about 1.42 *109/L”. For the same molecule, the overall safety conclusion ([3]; children ages 2 to 12 with MC, dosed 3×/wk for up to 16 weeks) was “safe”, the “subjects discontinued from the treatment period due to AEs” value ([3]; none severe in intensity, vehicle 1) was 2 subjects and the “subjects reporting at least 1 AE considered possibly or probably related to study drug” value ([3]; vehicle 19.8%, p=0.013) was 33.6%.
